Test results reported in ChEMBL document CHEMBL1938265, “Synthesis and biological evaluation of novel indolocarbazoles with anti-angiogenic activity” (Eur J Med Chem, 2012).
The source made the active and inactive calls. The calls are words filed in the database; no cut-off is given here.

Assays:
DLD-1 [1] = assay: Antiproliferative activity against human DLD1 cells after 48 to 72 hrs by MTT assay; format: functional, cell-based
HUVEC [2] = assay: Antiproliferative activity against human HUVEC after 48 to 72 hrs by MTT assay; format: functional, cell-based
LoVo [3] = assay: Antiproliferative activity against human LoVo cells after 48 to 72 hrs by MTT assay; format: functional, cell-based
ST486 = assay: Antiproliferative activity against human ST486 cells after 48 to 72 hrs by MTT assay; format: functional, cell-based
HUVEC [4] = assay: Antiangiogenic activity against HUVEC assessed as inhibition of capillary tube formation at 20 uM after 48 hrs by Matrigel assay; format: functional, cell-based; conditions: Homo sapiens
HUVEC [5] = assay: Antiangiogenic activity against HUVEC assessed as inhibition of capillary tube formation at 20 uM after 24 hrs by Matrigel assay; format: functional, cell-based; conditions: Homo sapiens
Mus musculus [6] = assay: Toxicity in Lewis mouse allografted with mouse LL/2 cells assessed as change in body weight at 5 ug/ml, ip administered daily 24 hrs post implantation measured on day 18 (reference value: 22.7 +/- 0.2 g); format: organism-based; conditions: in vivo
[7] = Antitumor activity against mouse LL/2 cells allografted in Lewis mouse assessed as change in tumor weight at 5 ug/ml, ip administered daily 24 hrs post implantation (reference value: 7.1 +/- 1.1 g); format: functional, Lewis lung carcinoma
[8] = Antitumor activity against mouse LL/2 cells allografted in Lewis mouse assessed as decrease in lung metastasis number at 5 ug/ml, ip administered daily 24 hrs post implantation (reference value: 11.8 +/- 7.1 number); format: functional, Lewis lung carcinoma
[9] = Antitumor activity against mouse LL/2 cells allografted in Lewis mouse assessed as decrease in lung metastasis number at 4 mg/ml, ip administered daily 24 hrs post implantation (reference value: 11.8 +/- 7.1 number); format: functional, Lewis lung carcinoma
Mus musculus [10] = assay: Toxicity in Lewis mouse allografted with mouse LL/2 cells assessed as change in body weight at 4 mg/ml, ip administered daily 24 hrs post implantation measured on day 18 (reference value: 22.7 +/- 0.2 g); format: organism-based; conditions: in vivo
[11] = Antitumor activity against mouse LL/2 cells allografted in Lewis mouse assessed as change in tumor weight at 4 mg/ml, ip administered daily 24 hrs post implantation (reference value: 7.1 +/- 1.1 g); format: functional, Lewis lung carcinoma
DLD-1 [12] = assay: Selectivity ratio of IC50 for human DLD1 cells to IC50 for HUVEC; format: functional
LoVo [13] = assay: Selectivity ratio of IC50 for human LoVo cells to IC50 for HUVEC; format: functional

| SMILES | IC50 (DLD-1 [1]) | IC50 (HUVEC [2]) | IC50 (LoVo [3]) | IC50 (ST486) | further results |
| --- | --- | --- | --- | --- | --- |
| CNCCOCCn1c2ccccc2c2c3c(c4c5ccccc5[nH]c4c21)C(=O)N(CCN(C)C)C3=O | 7000 nM | 300 nM | 6000 nM | 3000 nM |  |
| CN(C)CCN1C(=O)c2c(c3c4ccccc4[nH]c3c3[nH]c4ccccc4c23)C1=O | 3000 nM | 7000 nM | 500 nM | 1000 nM | Activity (HUVEC [4]): Active; Activity (HUVEC [5]): Active; Activity (Mus musculus [6]): 27.29 g; Activity [7]: 7.3 g; Activity [8]: 9.4 |
| O=C1NC(=O)c2c1c1c3ccccc3[nH]c1c1c2c2ccccc2n1CCOCCO | 2000 nM | 10000 nM | 4000 nM | 100 nM |  |
| Cc1ccc(C(=O)Nc2ccc(S(=O)(=O)O)c3cc(S(=O)(=O)O)cc(S(=O)(=O)O)c23)cc1NC(=O)c1cccc(NC(=O)Nc2cccc(C(=O)Nc3cc(C(=O)Nc4ccc(S(=O)(=O)O)c5cc(S(=O)(=O)O)cc(S(=O)(=O)O)c45)ccc3C)c2)c1 [SURAMIN] |  |  |  |  | Activity [9]: 5; Activity (Mus musculus [10]): 25.5 g; Activity [11]: 5.9 g |
| CN(C)CCN1C(=O)c2c(c3c4ccccc4n(CCOCCO)c3c3[nH]c4ccccc4c23)C1=O | 20000 nM | 100 nM | 300 nM | 3000 nM |  |
| CN(C)CCOCCn1c2ccccc2c2c3c(c4c5ccccc5[nH]c4c21)C(=O)NC3=O |  | 2000 nM |  | 2000 nM |  |
| CN(C)CCOCCn1c2ccccc2c2c3c(c4c5ccccc5[nH]c4c21)C(=O)N(CCN(C)C)C3=O.Cl.Cl | 20000 nM | 100 nM | 20000 nM | 4000 nM | Ratio IC50 (DLD-1 [12]): 200; Activity (HUVEC [4]): Active; Ratio IC50 (LoVo [13]): 200; Activity (HUVEC [5]): Active; Activity (Mus musculus [6]): 28.5 g; Activity [7]: 7.6 g; Activity [8]: 9 |
| CN[C@@H]1C[C@H]2O[C@@](C)([C@@H]1OC)n1c3ccccc3c3c4c(c5c6ccccc6n2c5c31)C(=O)NC4 [STAUROSPORINE] |  |  |  | 7 nM |  |
